Among the data in patent US9273077B2, “Phosphorus derivatives as kinase inhibitors” (ARIAD Pharmaceuticals, Inc., priority 2008, dated 2016) are IC50 values, retold here.

A value given as a limit tells only on which side of the number the result lay.

T1 sequence (Q9UM73 19-1620): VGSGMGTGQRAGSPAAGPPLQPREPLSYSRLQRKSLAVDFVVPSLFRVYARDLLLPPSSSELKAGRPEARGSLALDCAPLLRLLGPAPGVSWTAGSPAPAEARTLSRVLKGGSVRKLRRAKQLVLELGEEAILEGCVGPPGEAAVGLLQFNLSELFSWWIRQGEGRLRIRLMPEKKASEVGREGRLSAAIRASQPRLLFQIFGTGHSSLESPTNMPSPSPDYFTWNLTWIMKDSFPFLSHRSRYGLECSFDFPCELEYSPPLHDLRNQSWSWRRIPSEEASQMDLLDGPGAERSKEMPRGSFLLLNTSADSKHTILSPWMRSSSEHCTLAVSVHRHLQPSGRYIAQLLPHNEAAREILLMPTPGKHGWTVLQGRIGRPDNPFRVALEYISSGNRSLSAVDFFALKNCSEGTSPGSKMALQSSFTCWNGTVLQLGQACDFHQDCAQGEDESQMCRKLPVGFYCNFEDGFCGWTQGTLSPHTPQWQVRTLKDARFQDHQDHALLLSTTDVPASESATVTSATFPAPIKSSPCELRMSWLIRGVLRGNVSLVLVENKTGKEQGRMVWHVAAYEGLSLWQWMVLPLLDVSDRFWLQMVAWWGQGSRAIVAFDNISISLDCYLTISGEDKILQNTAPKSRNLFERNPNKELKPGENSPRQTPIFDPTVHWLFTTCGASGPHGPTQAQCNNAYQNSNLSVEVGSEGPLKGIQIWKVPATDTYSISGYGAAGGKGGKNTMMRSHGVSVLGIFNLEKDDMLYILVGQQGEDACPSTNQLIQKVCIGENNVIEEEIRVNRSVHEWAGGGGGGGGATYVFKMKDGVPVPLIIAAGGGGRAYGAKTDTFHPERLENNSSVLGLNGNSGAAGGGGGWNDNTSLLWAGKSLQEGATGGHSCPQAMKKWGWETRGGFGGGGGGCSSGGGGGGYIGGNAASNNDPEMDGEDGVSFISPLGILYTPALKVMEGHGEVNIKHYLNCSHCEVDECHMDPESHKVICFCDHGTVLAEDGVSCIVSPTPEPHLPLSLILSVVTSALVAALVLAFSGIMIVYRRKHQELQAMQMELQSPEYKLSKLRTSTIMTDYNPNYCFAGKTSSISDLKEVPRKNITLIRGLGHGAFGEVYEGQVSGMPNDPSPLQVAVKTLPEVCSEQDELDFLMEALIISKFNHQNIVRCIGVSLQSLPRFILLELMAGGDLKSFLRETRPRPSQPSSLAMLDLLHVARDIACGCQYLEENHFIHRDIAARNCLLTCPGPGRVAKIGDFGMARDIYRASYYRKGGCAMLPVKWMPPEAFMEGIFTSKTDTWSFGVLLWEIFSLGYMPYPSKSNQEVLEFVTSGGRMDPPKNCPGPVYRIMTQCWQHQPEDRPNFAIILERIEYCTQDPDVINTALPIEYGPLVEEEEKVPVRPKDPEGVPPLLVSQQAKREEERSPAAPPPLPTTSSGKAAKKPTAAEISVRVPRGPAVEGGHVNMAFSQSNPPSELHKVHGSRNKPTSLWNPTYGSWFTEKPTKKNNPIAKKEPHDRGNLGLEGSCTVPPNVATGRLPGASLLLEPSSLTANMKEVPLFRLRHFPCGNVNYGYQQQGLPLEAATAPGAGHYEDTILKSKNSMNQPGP

The test concerns the target T1, ALK (Homo sapiens, UniProt Q9UM73).
T1 construct: Kinases are expressed as either kinase domains or full length constructs fused to glutathione S-transferase (GST) or polyHistidine tagged fusion proteins; made in house; host or cells: E. coli or Baculovirus-High Five (not specified which for ALK)
Kind of test: inhibitory potency against ALK (kinase inhibition assay). In kind it is biochemical. An excerpt: More specifically, the compounds described herein are screened for kinase inhibition activity as follows. Kinases suitable for use in the following protocol include, but are not limited to: ALK, Jak2, b-Raf, c-Met, Tie-2, FLT3, Abl, Lck, Lyn, Src, Fyn, Syk, Zap-70, Itk, Tec, Btk, EGFR, ErbB2, Kdr, FLT1, Tek, InsR, and AKT.
Kinases are expressed as either kinase domains or full length constructs fused to glutathione S-transferase (GST) or polyHistidine tagged fusion proteins in either E. coli or Baculovirus-High Five expression systems. They are purified to near homogeneity by affinity chromatography as previously described (Lehr et al., 1996; Gish et al., 1995). In some instances, kinases are co-expressed or mixed with purified or partially purified regulatory polypeptides prior to measurement of activity.
Kinase activity and inhibition can be measured by established protocols (see e.g., Braunwalder et al., 1996). In such cases, the transfer of ^33PO4 from ATP to the synthetic substrates poly(Glu, Tyr) 4:1 or poly(Arg, Ser) 3:1 attached to the bioactive surface of microtiter plates is taken as a measure of enzyme activity. After an incubation period, the amount of phosphate transferred is measured by first washing the plate with 0.5% phosphoric acid, adding liquid scintillant, and then counting in a liquid scintillation detector. The IC50 is determined by the concentration of compound that causes a 50% reduction in the amount of ^33P incorporated onto the substrate bound to the plate.
For example, in one method, compounds can be tested for their ability to inhibit kinase activity of baculovirus-expressed ALK using a modification of the ELISA protocol reported for trkA in Angeles, T. S. et al., Anal. Biochem. 1996, 236, 49-55, which is incorporated herein by reference. Phosphorylation of the substrate, phopholipase C-gamma (PLC- ? ) generated as a fusion protein with glutathione-S-transferase (GST) as reported in rotin, D. et al., EMBO J. 1992, 11, 559-567, which is incorporated by reference, can be detected with europium-labeled anti-phosphotyrosine antibody and measured by time-resolved fluorescence (TRF). […] Detection of the phosphorylated product can be performed by adding 100 ? L/well of Eu-N1 labeled PT66 antibody (Perkim Elmer #AD0041). Incubation at 37 degrees C. then proceeds for one hour, followed by addition of 100 ? L enhancement solution (for example Wallac #1244-105). The plate is gently agitated and after thirty minutes, the fluorescence of the resulting solution can be measured (for example using EnVision 2100 (or 2102) multilabel plate reader from Perkin Elmer).
Data analysis can then be performed. IC50 values can be calculated by plotting percent inhibition versus log10 of concentration of compound.
The inhibition of ALK tyrosine kinase activity can also be measured using the recombinant kinase domain of the ALK in analogy to VEDG-R kinase assay described in J. Wood et al., Cancer Res 2000, 60, 2178-2189. In vitro enzyme assays using GST-ALK protein tyrosine kinase can be performed in 96-well plate as a filter binding assay in 20 mMTris.HCl, pH 7.5, 3 mM MgCl2, 10 mM MnCl2, […], 0.1 ? Ci/assay (=30 ? L) [ ? -^33P]-ATP, 2 ? M ATP, 3 ? g/mL poly (Glu, tyr 4:1) Poly-EY (sigma P-0275), 1% DMSO, 25 ng ALK enzyme. Assays can be incubated for 10 min, at ambient temperature. Reactions can be terminated by adding 50 ? L of 125 mM EDTA, and the reaction mixture can be transferred onto a MAIP Multiscreen plate (Millipore, Bedford, Mass.) previously wet with methanol, and rehydrated for 5 minutes with water. Following washing (0.5% H3PO4), plates can be counted in a liquid scintillation counter. IC50 values are calculated by linear regression analysis of the percentage inhibition.
Broadly, the IC50 is the concentration at which inhibition is half-maximal. Read a high IC50 as weaker potency in that assay. In the case of `Cc1cc(P(C)(C)=O)ccc1Nc1ncc(Cl)c(Nc2ccccc2S(=O)(=O)C(C)C)n1` [Example 23, 5-Chloro-N^2-[4-(dimethylphosphoryl)-2-methylphenyl]-N-[2-(propan-2-ylsulfonyl)phenyl]pyrimidine-2,4-diamine], the concentration for half-maximal inhibition (IC50) was under 2 nM.
The result for `COc1nc(P(C)(C)=O)ccc1Nc1ncc(Cl)c(Nc2ccccc2S(=O)(=O)C(C)C)n1` [Example 32, 5-chloro-N^2-[6-(dimethylphosphoryl)-2-methoxypyridin-3-yl]-N^4-[2-(propan-2-ylsulfonyl)phenyl]pyrimidine-2,4-diamine] reads under 2 nM.
The result for `COc1cc(P(C)(C)=O)ccc1Nc1ncc(C(F)(F)F)c(Nc2ccccc2S(=O)(=O)C(C)C)n1` [Example 16, N^2-[4-(dimethylphosphoryl)-2-methoxyphenyl]-N^4-[2-(propan-2-ylsulfonyl)phenyl]-5-(trifluoromethyl)pyrimidine-2,4-diamine] reads 2 to 10 nM; that for `CC(C)S(=O)(=O)c1ccccc1Nc1nc(Nc2ccc(P(C)(C)=O)cc2Cl)ncc1Cl` [Example 26, 5-Chloro-N^2-[2-chloro-4-(dimethylphosphoryl)phenyl]-N^4-[2-(propan-2-ylsulfonyl)phenyl]pyrimidine-2,4-diamine], under 2 nM; that for `CC(C)S(=O)(=O)c1ccccc1Nc1nc(Nc2ccc(P(C)(C)=O)cc2)ncc1Cl` [Example 18, 5-chloro-N^2-[4-(dimethylphosphoryl)phenyl]-N^4-[2-(propan-2-ylsulfonyl)phenyl]pyrimidine-2,4-diamine], 2 to 10 nM.
With `COc1cc(P(C)(C)=O)ccc1Nc1nc(Nc2ccccc2S(=O)(=O)C(C)C)c2cc[nH]c2n1` [Example 31, N^2-[4-(dimethylphosphoryl)-2-methoxyphenyl]-N^4-[2-(propan-2-ylsulfonyl)phenyl]-7H-pyrrolo[2,3-d]pyrimidine-2,4-diamine], the 50% inhibitory concentration (IC50) is under 2 nM.
Regarding `COc1nc(P(C)(C)=O)cnc1Nc1ncc(Cl)c(Nc2ccccc2S(=O)(=O)C(C)C)n1` [Example 33, 5-chloro-N^2-[5-(dimethylphosphoryl)-3-methoxypyrazin-2-yl]-N^4-[2-(propan-2-ylsulfonyl)phenyl]pyrimidine-2,4-diamine], the half-inhibitory concentration (IC50) is over 10 nM.
With `CN1CCN(Nc2nc(Nc3ccc(P(C)(C)=O)cc3)ncc2C(F)(F)F)CC1` [Example 11, N^2-[4(dimethylphosphoryl)phenyl]-N^4-(4-methylpiperazin-1-yl)-5-(trifluoromethyl) pyrimidine-2,4-diamine], the IC50 is over 10 nM.
The same measure for `COc1cc(P(C)(C)=O)ccc1Nc1nccc(Nc2ccccc2S(=O)(=O)C(C)C)n1` [Example 20, N^2-[4-(dimethylphosphoryl)-2-methoxyphenyl]-N^4-[2-(propan-2-ylsulfonyl)phenyl]pyrimidine-2,4-diamine]: over 10 nM; for `COc1cc(P(C)(C)=O)ccc1Nc1ncc(Cl)c(Nc2ccccc2)n1` [Example 15, 5-chloro-N^2-[4-(dimethylphosphoryl)-2-methoxyphenyl]-N^4-phenylpyrimidine-2,4-diamine]: over 10 nM.
In turn, `CC(C)S(=O)(=O)c1ccccc1Nc1nc(Nc2ccc(P(C)(C)=O)cc2OC(F)(F)F)ncc1Cl` [Example 25, 5-Chloro-N^2-[4-(dimethylphosphoryl)-2-(trifluoromethoxy)phenyl]-N^4-[2-(propan-2-ylsulfonyl)phenyl]pyrimidine-2,4-diamine] yielded a half-maximal inhibitory concentration (IC50) of under 2 nM.
The same measure for `CP(C)(=O)c1ccc(Nc2ncc(C(F)(F)F)c(NC34CC5CC(CC(C5)C3)C4)n2)cc1` [Example 2, N^2-[4-(dimethylphosphoryl)phenyl]-N′-(tricyclo[3.3.1.1^3,7]dec-1-yl)-5-(trifluoromethyl)pyrimidine-2,4-diamine]: over 10 nM.
In the case of `CP(C)(=O)c1ccc(Nc2ncc(C(F)(F)F)c(NCCc3ccc(S(N)(=O)=O)cc3)n2)cc1` [Example 5, 4-(2-{[2-{[4-(dimethylphosphoryl)phenyl]amino}-5-(trifluoromethyl)pyrimidin-4-yl]amino}ethyl)benzenesulfonamide], the half-inhibitory concentration (IC50) is over 10 nM.
`COc1cc(P2(=O)CCNCC2)ccc1Nc1nccc(Nc2ccccc2S(=O)(=O)C(C)C)n1` [Example 30, N^2-[2-methoxy-4-(4-oxido-1,4-azaphosphinan-4-yl)phenyl]-N^4-[2-(propan-2-ylsulfonyl)phenyl]pyrimidine-2,4-diamine]: the half-maximal inhibitory concentration (IC50) was in the range of 2 to 10 nM.
For `COc1cc(P(C)(C)=O)ccc1Nc1ncc2[nH]c(=O)n(-c3ccccc3S(=O)(=O)C(C)C)c2n1` [Example 29, 2-{[4-(dimethylphosphoryl)-2-methoxyphenyl]amino}-9-[2-(propan-2-ylsulfonyl)phenyl]-7,9-dihydro-8H-purin-8-one], the half-maximal inhibitory concentration (IC50) was over 10 nM.
`CP(C)(=O)c1ccc(Nc2ncc(C(F)(F)F)c(NN3CC4CCCC4C3)n2)cc1` (centres unmarked) [Example 7, N^2-[4-(dimethylphosphoryl)phenyl]-N^4-(hexahydrocyclopenta[c]pyrrol-2(1H)-yl)-5-(trifluoromethyl)pyrimidine-2,4-diamine] yielded an IC50 of over 10 nM.
Molecule `CCc1cc(P(C)(C)=O)ccc1Nc1ncc(Cl)c(Nc2ccccc2S(=O)(=O)C(C)C)n1` [Example 24, 5-Chloro-N^2-[4-(dimethylphosphoryl)-2-ethylphenyl]-N^4-[2-(propan-2-ylsulfonyl)phenyl]pyrimidine-2,4-diamine] returned a half-inhibitory concentration (IC50) of under 2 nM.
The result for `CP(C)(=O)c1ccc(Nc2ncc(C(F)(F)F)c(NN3CCOCC3)n2)cc1` [Example 8, N^2-[4-(dimethylphosphoryl)phenyl]-N^4-(morpholin-4-yl)-5-(trifluoromethyl)pyrimidine-2,4-diamine] reads over 10 nM; that for `COc1cc(P(C)(C)=O)ccc1Nc1ncc(N)c(Nc2ccccc2S(=O)(=O)C(C)C)n1` [Example 28, N^2-[4-(dimethylphosphoryl)-2-methoxyphenyl]-N^4-[2-(propan-2-ylsulfonyl)phenyl]pyrimidine-2,4,5-triamine], over 10 nM; that for `COc1ccc(P(C)(C)=O)cc1Nc1ncc(Cl)c(Nc2ccccc2S(=O)(=O)C(C)C)n1` [Example 22, 5-Chloro-N^2-[5-(dimethylphosphoryl)-2-methoxyphenyl]-N^4-[2-(propan-2-ylsulfonyl)phenyl]pyrimidine-2,4-diamine], 2 to 10 nM.
The molecule `CC(C)S(=O)(=O)c1ccccc1Nc1nc(Nc2ccc(P(C)(C)=O)cc2F)ncc1Cl` [Example 27, 5-Chloro-N^2-[4-(dimethylphosphoryl)-2-fluorophenyl]-N^4-[2-(propan-2-ylsulfonyl)phenyl]pyrimidine-2,4-diamine] gave an IC50 of 2 to 10 nM.
For `Cc1cc(C)cc(Nc2nc(Nc3ccc(P(C)(C)=O)cc3)ncc2C(F)(F)F)c1` [Example 14, N^4-(3,5-dimethylphenyl)-N^2-[4-(dimethylphosphoryl)phenyl]-5(trifluoromethyl)pyrimidine-2,4-diamine], the IC50 is over 10 nM.
The same measure for `COc1cc(N2CCC(N3CCN(C)CC3)CC2)ccc1Nc1ncc(Cl)c(Nc2ccc(P(C)(C)=O)cc2)n1` [Example 19, 5-chloro-N^4-[4-(dimethylphosphoryl)phenyl]-N^2-{2-methoxy-4-[4-(4-methylpiperazin-1-yl)piperidin-1-yl]phenyl}pyrimidine-2,4-diamine]: over 10 nM.
